The values below come from ChEMBL document CHEMBL1921773, “Carbamates of 4'-demethyl-4-deoxypodophyllotoxin: synthesis, cytotoxicity and cell cycle effects” (Bioorg Med Chem Lett, 2011).

Each structure is given as a SMILES string.

One data set relates to HL-60. The data set can be described thus: Cytotoxicity against human HL60 cells assessed as growth inhibition after 48 hrs by CCK-8 assay. Format: functional, cell-based. As to conditions: HL-60, 48 h.
The subject of the next data set is HeLa. The data set can be described thus: Cytotoxicity against human HeLa cells assessed as growth inhibition after 48 hrs by CCK-8 assay. Format: functional, cell-based. (In general: Formazan colour is commonly taken as a measure of viable cells.)
Data set [1] deals with A549. The data set can be described thus: Cytotoxicity against human A549 cells assessed as growth inhibition after 48 hrs by MTT assay. Format: functional, cell-based. As to conditions: A549, 48 h.
The subject of a further data set is SiHa. The data set is described as follows: Cytotoxicity against human SiHa cells assessed as growth inhibition after 48 hrs by MTT assay. Format: functional, cell-based.
Data set [2] in a line: Octanol-water partition coefficient, log P of the compound. Format: physicochemical.
The subject of data set [3] is A549. The data set is described as follows: Cell cycle arrest in human A549 cells assessed as accumulation of cells at G1 phase at 0.4 uM after 12 hrs by propidium iodide staining-based flow cytometry (reference value: 59.9%). Format: functional. On the technique in general: A flow cytometer gives signals particle by particle.
Data set [4] deals with A549. The data set can be described thus: Cell cycle arrest in human A549 cells assessed as accumulation of cells at G2/M phase at 0.4 uM after 24 hrs by propidium iodide staining-based flow cytometry (reference value: 3.2%). Format: functional.
Data set [5] concerns A549. The data set can be described thus: Cell cycle arrest in human A549 cells assessed as accumulation of cells at G2/M phase at 0.4 uM by propidium iodide staining-based flow cytometry (reference value: 3.2%). Format: functional. As to conditions: TDE = time-dependent effect.
Data set [6] has as its system A549. The data set can be described thus: Cell cycle arrest in human A549 cells assessed as accumulation of cells at S phase at 0.4 uM after 24 hrs by propidium iodide staining-based flow cytometry (reference value: 36.7%). Format: functional.
Data set [7] deals with A549. The data set can be described thus: Cell cycle arrest in human A549 cells assessed as accumulation of cells at S phase at 0.4 uM after 12 hrs by propidium iodide staining-based flow cytometry (reference value: 36.7%). Format: functional.
Data set [8] has as its system A549. The data set is described as follows: Cell cycle arrest in human A549 cells assessed as accumulation of cells at G2/M phase at 0.4 uM after 12 hrs by propidium iodide staining-based flow cytometry (reference value: 3.2%). Format: functional.
In data set [9] the test system is A549. The data set is described as follows: Cell cycle arrest in human A549 cells assessed as accumulation of cells at G1 phase at 0.4 uM after 24 hrs by propidium iodide staining-based flow cytometry (reference value: 59.9%). Format: functional.

In the case of `COc1cc([C@@H]2c3cc4c(cc3C[C@H]3COC(=O)[C@@H]32)OCO4)cc(OC)c1OC(=O)N[C@H](Cc1ccccc1)C(N)=O`, the IC50 was determined as 0.231 µM in the data set with HL-60, 0.575 µM in the data set with HeLa, 1.61 µM in the data set with A549 [1] and 0.416 µM with SiHa. Moreover, the logP in data set [2] is 1.33.

Regarding `COc1cc([C@@H]2c3cc4c(cc3C[C@H]3COC(=O)[C@@H]32)OCO4)cc(OC)c1OC(=O)N[C@H](C(=O)NC1CC1)C(C)C`, the IC50 worked out at 0.213 µM in the data set with HL-60, 0.433 µM in the data set on HeLa, 2.31 µM with A549 [1] and 0.432 µM in the data set with SiHa. The compound further yielded a logP in data set [2] of 1.45.

As to `COc1cc([C@@H]2c3cc4c(cc3C[C@H]3COC(=O)[C@@H]32)OCO4)cc(OC)c1O` [4'-DEMETHYLDEOXYPODOPHYLLOTOXIN], the half-maximal inhibitory concentration (IC50) with HL-60 amounted to 2.96 µM; in the data set on HeLa, 43 µM; in the data set on A549 [1] it was 1.8 µM; in the data set on SiHa it was 53.3 µM. In [2], this compound gave a logP of 2.92.

As for `CC[C@H](C)[C@H](NC(=O)Oc1c(OC)cc([C@@H]2c3cc4c(cc3C[C@H]3COC(=O)[C@@H]32)OCO4)cc1OC)C(N)=O`, the IC50 in the data set on HL-60 came to 1.02 µM; in the data set on HeLa, 5.28 µM; with A549 [1] it was 1.77 µM; with SiHa it was 3.7 µM. This compound also registered a logP in data set [2] of 1.36.

With `COc1cc([C@@H]2c3cc4c(cc3C[C@H]3COC(=O)[C@@H]32)OCO4)cc(OC)c1OC(=O)N[C@@H](Cc1ccccc1)C(=O)NC1CC1`, the IC50 in the data set with HL-60 is 0.416 µM; in the data set with HeLa, 0.693 µM; in the data set with A549 [1] it was 3.37 µM; in the data set with SiHa, 1.12 µM. This compound also displayed a logP in [2] of 1.95.

With `COc1cc([C@@H]2c3cc4c(cc3C[C@H]3COC(=O)[C@@H]32)OCO4)cc(OC)c1OC(=O)N[C@H](CCSC)C(N)=O`, the Activity in the data set on A549 [3] is 22.6%; in the data set on A549 [4] it was 58.1%; with A549 [5] it was “tde”; with A549 [6], 30.7%; in the data set on A549 [7] it was 49.7%; in the data set with A549 [8] it was 27.7%. In the data set on A549 [9], the Activity worked out at 11.2%. The IC50 with HL-60 was 0.0893 µM; in the data set on HeLa, 0.528 µM; in the data set with A549 [1], 0.887 µM; in the data set on SiHa it was 0.614 µM. Also, the logP in [2] worked out at 0.26.

Consider `COc1cc([C@@H]2c3cc4c(cc3[C@@H](O[C@@H]3O[C@@H]5CO[C@@H](C)O[C@H]5[C@H](O)[C@H]3O)[C@H]3COC(=O)[C@H]23)OCO4)cc(OC)c1O` [ETOPOSIDE], for which the IC50 stood at 2.85 µM with HL-60, 2.76 µM in the data set on HeLa, 24.9 µM with A549 [1] and 40.4 µM in the data set on SiHa. In data set [2], this compound displayed a logP of 0.69.

With `COc1cc([C@@H]2c3cc4c(cc3C[C@H]3COC(=O)[C@@H]32)OCO4)cc(OC)c1OC` [DESOXYPODOPHYLLOTOXIN], the IC50 is 0.47 µM in the data set with HL-60, 1.98 µM in the data set on HeLa, 1.38 µM in the data set with A549 [1] and 6.01 µM in the data set with SiHa. Besides, the logP in data set [2] is 3.16.

`COc1cc([C@@H]2c3cc4c(cc3C[C@H]3COC(=O)[C@@H]32)OCO4)cc(OC)c1OC(=O)N[C@@H](C)C(N)=O`: the IC50 with HL-60 is 0.397 µM; in the data set on HeLa, 0.743 µM; in the data set on A549 [1], 4.23 µM; in the data set with SiHa, 0.696 µM. Further, the logP in data set [2] is -0.09.

Take `COc1cc([C@@H]2c3cc4c(cc3C[C@H]3COC(=O)[C@@H]32)OCO4)cc(OC)c1OC(=O)N[C@@H](CC(C)C)C(N)=O`: the IC50 was 0.67 µM in the data set on HL-60, 0.703 µM with HeLa, 9.93 µM in the data set on A549 [1] and 0.877 µM with SiHa. This compound gave a log partition coefficient (logP) in data set [2] of 1.26.

Turning to `COc1cc([C@@H]2c3cc4c(cc3C[C@H]3COC(=O)[C@@H]32)OCO4)cc(OC)c1OC(=O)N[C@@H](Cc1ccccc1)C(=O)NC1CCCC1`, the concentration for half-maximal inhibition (IC50) in the data set with HL-60 was 0.988 µM; with HeLa it was 3.07 µM; in the data set on A549 [1] it was 2.69 µM; in the data set on SiHa it was 6.87 µM. In addition, the logP in data set [2] was determined as 2.06.

In the case of `COc1cc([C@@H]2c3cc4c(cc3C[C@H]3COC(=O)[C@@H]32)OCO4)cc(OC)c1OC(=O)N[C@H](C(N)=O)C(C)C`, the IC50 in the data set on HL-60 worked out at 1.03 µM; with HeLa it was 3.83 µM; in the data set with A549 [1], 1.49 µM; in the data set on SiHa, 2.89 µM. This compound also displayed a log partition coefficient (logP) in data set [2] of 0.84.

Consider `COc1cc([C@@H]2c3cc4c(cc3C[C@H]3COC(=O)[C@@H]32)OCO4)cc(OC)c1OC(=O)N[C@@H](Cc1ccccc1)C(N)=O`, for which the IC50 stood at 0.94 µM with HL-60, 1.72 µM with HeLa, 3.41 µM in the data set with A549 [1] and 1.07 µM in the data set with SiHa. Besides, in [2], the logP is 1.35.

As for `COc1cc([C@@H]2c3cc4c(cc3C[C@H]3COC(=O)[C@@H]32)OCO4)cc(OC)c1OC(=O)N[C@H](C(=O)NC1CCCC1)C(C)C`, the IC50 with HL-60 came out at 1.03 µM; in the data set with HeLa, 20.3 µM; in the data set with A549 [1], 1.91 µM; with SiHa it was 14.6 µM. In data set [2], this compound displayed a logP of 2.57.

In the case of `COc1cc([C@@H]2c3cc4c(cc3C[C@H]3COC(=O)[C@@H]32)OCO4)cc(OC)c1OC(=O)N[C@@H](CCSC)C(N)=O`, the IC50 in the data set with HL-60 is 0.711 µM; in the data set on HeLa it was 2.03 µM; with A549 [1] it was 0.86 µM; in the data set on SiHa it was 4.32 µM. This compound also returned a lipophilicity (logP) in data set [2] of 0.28.

In general, IC50 refers to the point on the concentration scale where inhibition reaches its midpoint. One may read the logP as a log measure of how a compound divides between an organic and an aqueous phase.
